The results in this text go back to patent publication US10899738B2 (THE REGENTS OF THE UNIVERSITY OF MICHIGAN, priority 2016, dated 2021).

Assay [1] in a line: Cell growth inhibition, CellTiter-Glo Luminescent Cell Viability Assay. Format: cell-based. The essentials:
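Cells seeded at 2,000/well with serially diluted compound and cultured 4 days at 37 °C, 5% CO2. Viability read by CellTiter-Glo luminescence; IC50 derived from dose-response.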

A further assay has as its target menin protein (Homo sapiens (Human), UniProt O00255). The assay can be described thus: biochemical. The following applies: FP competitive binding; menin protein 4 nM, FAM-MM2 probe 2 nM; read-out: Menin Binding Affinity IC50. Format: binding. The essentials:
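Competitive fluorescence polarization assay using FAM-labelled MLL1 peptide probe FAM-MM2 (2 nM final) preincubated with menin (4 nM final) in PBS with 0.02% bovine γ-globulin, 4% DMSO and 0.01% Triton X-100. Compounds were added and incubated 30 min at room temperature. IC50 came from nonlinear regression of competition curves, with Ki also derived.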

The mark [2] stands for this setting: MOLM-13, 96 h, read-out: Cell Growth Inhibition IC50 (μM) MOLM13, MOLM13 cells, 4 days, CellTiter-Glo.
Where [3] appears, read: MV4-11, 96 h, read-out: Cell Growth Inhibition IC50 (μM) MV4, 11, MV4, 11 cells, 4 days, CellTiter-Glo.
[4] abbreviates: MOLM-13, 96 h, MOLM13 cells, 4 days, CellTiter-Glo, read-out: Cell Growth Inhibition IC50 (μM) MOLM13.
Where [5] appears, read: MV4-11, 96 h, MV4, 11 cells, 4 days, CellTiter-Glo, read-out: Cell Growth Inhibition IC50 (μM) MV4, 11.

The structures appear in SMILES notation. Like-named read-outs stand apart in the source and are kept apart here.

Sequence of menin protein (O00255 whole entry): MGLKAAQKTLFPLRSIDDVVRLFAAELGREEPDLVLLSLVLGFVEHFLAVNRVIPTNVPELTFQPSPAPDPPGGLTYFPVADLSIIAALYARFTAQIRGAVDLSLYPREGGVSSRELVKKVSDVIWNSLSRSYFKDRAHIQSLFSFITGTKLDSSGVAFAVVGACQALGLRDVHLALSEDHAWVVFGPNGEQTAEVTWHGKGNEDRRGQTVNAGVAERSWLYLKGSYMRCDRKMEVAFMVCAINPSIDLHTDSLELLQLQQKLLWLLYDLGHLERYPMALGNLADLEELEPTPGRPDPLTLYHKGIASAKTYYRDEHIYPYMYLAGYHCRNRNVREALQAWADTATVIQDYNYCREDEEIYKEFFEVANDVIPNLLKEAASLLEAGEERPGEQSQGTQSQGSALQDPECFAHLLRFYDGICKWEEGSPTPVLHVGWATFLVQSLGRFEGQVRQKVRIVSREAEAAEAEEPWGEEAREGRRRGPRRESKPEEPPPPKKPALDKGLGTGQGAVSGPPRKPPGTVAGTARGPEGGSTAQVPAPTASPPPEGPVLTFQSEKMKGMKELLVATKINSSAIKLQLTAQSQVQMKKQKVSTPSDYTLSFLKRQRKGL

One may read the IC50 as the concentration that gives 50% inhibition. As to `CC(=O)N[C@H]1CCC[C@@H]1C(C#N)(c1ccccc1)C1CCN(CC2CN(c3ccc(S(=O)(=O)c4ccncc4)cc3)C2)CC1` (mixture of isomers) [compound 263, rac-N-((1S,2R)-2-(cyano(phenyl)(1-((1-(4-(pyridin-4-ylsulfonyl)phenyl)azetidin-3-yl)methyl)piperidin-4-yl)methyl)cyclopentyl) acetamide], the IC50 in assay [1] (setting [2]) worked out at 1.4 µM; in assay [1] (setting [3]) it was 0.254 µM; at menin protein it was 10 nM.
The like results for `CCc1nccn1CC(c1ccccc1)(C1CCN(CC2CN(c3ccc(C#N)cc3)C2)CC1)[C@@H]1CCC[C@H]1OC(=O)NC` (mixture of isomers) [compound 409, rac-(1R,2S)-2-(1-(1-((1-(4-cyanophenyl)azetidin-3-yl)methyl)piperidin-4-yl)-2-(2-ethyl-1H-imidazol-1-yl)-1-phenylethyl)cyclopentyl methylcarbamate] were, in that order, 1.6 µM, 1.7 µM and 116 nM.
With `CCN1Cc2ccccc2C(C2CCCC2)(C2CCN(CC3CN(c4ccc(S(=O)(=O)c5cnn(C)c5)cc4)C3)CC2)C1` (stereo not drawn) [compound 102, 4-cyclopentyl-2-ethyl-4-(1-((1-(4-((1-methyl-1H-pyrazol-4-yl)sulfonyl)phenyl)azetidin-3-yl)methyl)piperidin-4-yl)-1,2,3,4-tetrahydroisoquinoline], the IC50 was found to be 0.708 µM in assay [1] (setting [4]), 0.267 µM in assay [1] (setting [5]) and 11 nM at menin protein.
The like results for `O=S(=O)(c1ccc(N2CC(CN3CCC(C4(C5CCCC5)NCCc5ccccc54)CC3)C2)cc1)C1CC1` (stereo not drawn) [compound 135, 1-cyclopentyl-1-(1-((1-(4-(cyclopropylsulfonyl)phenyl)azetidin-3-yl)methyl)piperidin-4-yl)-1,2,3,4-tetrahydroisoquinoline] were, in that order, 2.1 ± 1 µM, 1.3 ± 0.4 µM and 25 nM.
As to `CNC(=O)O[C@H]1CCC[C@@H]1C(Cn1cccc1)(c1ccccc1)C1CCN(CC2CN(c3ccc(S(=O)(=O)c4ccccc4)cc3)C2)CC1` (mixture of isomers) [compound 359, rac-(1S,2R)-2-(1-phenyl-1-(1-((1-(4-(phenylsulfonyl)phenyl)azetidin-3-yl)methyl)piperidin-4-yl)-2-(1H-pyrrol-1-yl)ethyl)cyclopentyl methylcarbamate], the IC50 came to 1.46 µM in assay [1] (setting [2]), 0.43 µM in assay [1] (setting [3]) and 12 nM on menin protein.
For the compound `CCN1Cc2ccccc2C(C2CCN(CC3CN(c4ccc(S(=O)(=O)c5ccn(C)c5)cc4)C3)CC2)([C@H]2CCC[C@@H]2NC(=O)NC)C1` (mixture of isomers) [compound 375, rac-1-((1S,2R)-2-(2-ethyl-4-(1-((1-(4-((1-methyl-1H-pyrrol-3-yl)sulfonyl)phenyl)azetidin-3-yl)methyl)piperidin-4-yl)-1,2,3,4-tetrahydroisoquinolin-4-yl)cyclopentyl)-3-methylurea], the values for the IC50 (in assay [1] (setting [2]); in assay [1] (setting [3]); at menin protein) were 1.73 µM, 0.39 µM and 11 nM, respectively.
With `O=S(=O)(c1ccncc1)c1ccc(N2CC(CN3CCC(C4(C5CCCC5)NCCc5ccccc54)CC3)C2)cc1` (stereo not drawn) [compound 151, 1-cyclopentyl-1-(1-((1-(4-(pyridin-4-ylsulfonyl)phenyl)azetidin-3-yl)methyl)piperidin-4-yl)-1,2,3,4-tetrahydroisoquinoline], the IC50 in assay [1] (setting [4]) amounted to 0.627 µM; in assay [1] (setting [5]), 1.3 µM; on menin protein, 15 nM.
On to `CCC(=O)O[C@H]1CCC[C@@H]1C(C#N)(c1ccccc1)C1CCN(CC2CN(c3ccc(S(=O)(=O)c4ccncc4)cc3)C2)CC1` (mixture of isomers) [compound 195, rac-(1S,2R)-2-(cyano(phenyl)(1-((1-(4-(pyridin-4-ylsulfonyl)phenyl)azetidin-3-yl)methyl)piperidin-4-yl)methyl)cyclopentyl propionate], for which the IC50 was 1.5 µM in assay [1] (setting [2]), 0.991 µM in assay [1] (setting [3]) and 10 nM at menin protein.
`CCN1Cc2ccccc2C(C2CCCC2)(C2CCN(CC3CN(c4ccc(S(=O)(=O)C5CC5)cc4Cl)C3)CC2)C1` (stereo not drawn) [compound 144, 4-(1-((1-(2-chloro-4-(cyclopropylsulfonyl)phenyl)azetidin-3-yl)methyl)piperidin-4-yl)-4-cyclopentyl-2-ethyl-1,2,3,4-tetrahydroisoquinoline]: the values for the IC50 (in assay [1] (setting [4]); in assay [1] (setting [5]); at menin protein) were 4 ± 0.7 µM, 1.6 ± 1.1 µM and 23 nM, respectively.
In the case of `CCN1Cc2ccccc2C(C2CCCC2)(C2CCN(CC3CN(c4ccc(S(=O)(=O)c5ccncc5)cc4)C3)CC2)C1` (stereo not drawn) [Cpd. No. 148, 4-cyclopentyl-2-ethyl-4-(1-((1-(4-(pyridin-4-ylsulfonyl)phenyl)azetidin-3-yl)methyl)piperidin-4-yl)-1,2,3,4-tetrahydroisoquinoline], the values for the IC50 (in assay [1] (setting [4]); in assay [1] (setting [5]); on menin protein) were 1.5 ± 0.9 µM, 0.81 ± 0.364 µM and 6 nM, respectively.
The like results for `O=S(=O)(c1ccccc1)c1ccc(N2CC(CN3CCC(C(CN4CCCC4)(c4ccccc4)[C@H]4C=CCC4)CC3)C2)cc1` (stereo partly drawn) [compound 356, 4-(1-((R)-cyclopent-2-en-1-yl)-1-phenyl-2-(pyrrolidin-1-yl)ethyl)-1-((1-(4-(phenylsulfonyl)phenyl)azetidin-3-yl)methyl)piperidine] were, in that order, 0.69 µM, 0.71 µM and 22 nM.
As for `COC(=O)N[C@H]1CCC[C@@H]1C(C#N)(c1ccccc1)C1CCN(CC2CN(c3ccc(S(=O)(=O)c4cnn(C)c4)cc3)C2)CC1` (mixture of isomers) [Cpd. No. 349, methyl (rac-(1S,2R)-2-(cyano(1-((1-(4-((1-methyl-1H-pyrazol-4-yl)sulfonyl)phenyl)azetidin-3-yl)methyl)piperidin-4-yl)(phenyl)methyl)cyclopentyl)carbamate], the concentration for half-maximal inhibition (IC50) in assay [1] (setting [2]) worked out at 0.87 µM; in assay [1] (setting [3]) it was 0.44 µM; on menin protein, 15 nM.
The matching figures for `COC(=O)N[C@H]1CCC[C@@H]1C(C#N)(c1ccccc1)C1CCN(CC2CN(c3ccc(S(=O)(=O)C4CC4)cc3Cl)C2)CC1` (mixture of isomers) [compound 395, methyl rac-((1S,2R)-2-((1-((1-(2-chloro-4-(cyclopropylsulfonyl)phenyl)azetidin-3-yl)methyl)piperidin-4-yl)(cyano)(phenyl)methyl)cyclopentyl)carbamate]: 2.29 µM, 0.65 µM and 16 nM.
The matching figures for `COC(=O)N[C@H]1CCC[C@@H]1C(C#N)(c1ccccc1)C1CCN(CC2CN(c3ccc(S(=O)(=O)c4ccc(F)cc4)cc3)C2)CC1` (mixture of isomers) [compound 394, methyl rac((1S,2R)-2-(cyano(1-((1-(4-((4-fluorophenyl)sulfonyl)phenyl)azetidin-3-yl)methyl)piperidin-4-yl)(phenyl)methyl)cyclopentyl) carbamate]: 1.94 µM, 0.43 µM and 15 nM.
Regarding `CCN1Cc2ccccc2C(C2CCCC2)(C2CCN(CC3(F)CN(c4ccc(S(=O)(=O)C5CC5)cc4)C3)CC2)C1` (stereo not drawn) [compound 141, 4-cyclopentyl-4-(1-((1-(4-(cyclopropylsulfonyl)phenyl)-3-fluoroazetidin-3-yl)methyl)piperidin-4-yl)-2-ethyl-1,2,3,4-tetrahy36droisoquinoline], the IC50 is 54.7 µM in assay [1] (setting [4]), 4.7 µM in assay [1] (setting [5]) and 28 nM at menin protein.
`CN1Cc2ccccc2C(C2CCCC2)(C2CCN(CC3CN(c4ccc(C#N)cc4)C3)CC2)C1` (stereo not drawn) [compound 45, 4-(3-((4-(4-cyclopentyl-2-methyl-1,2,3,4-tetrahydroisoquinolin-4-yl)piperidin-1-yl)methyl)azetidin-1-yl)benzonitrile]: the IC50 in assay [1] (setting [4]) is 5 µM; in assay [1] (setting [5]) it was 0.845 ± 0.436 µM; at menin protein, 27 nM.
The like results for `CCN1Cc2ccccc2C(C2CCCC2)(C2CCN(CC3CN(c4ccc(S(=O)(=O)C5CCCC5)cc4)C3)CC2)C1` (stereo not drawn) [compound 142, 4-cyclopentyl-4-(1-((1-(4-(cyclopentylsulfonyl)phenyl)azetidin-3-yl)methyl)piperidin-4-yl)-2-ethyl-1,2,3,4-tetrahydroisoquinoline] were, in that order, 3.2 ± 0.3 µM, 0.979 ± 0.335 µM and 8 nM.
For `CCN1Cc2ccccc2C(C2CCCC2)(C2CCN(CC3CN(c4ccc(S(=O)(=O)C5CC5)cc4)C3)CC2)C1` (stereo not drawn) [compound 137, 4-cyclopentyl-4-(1-((1-(4-(cyclopropylsulfonyl)phenyl)azetidin-3-yl)methyl)piperidin-4-yl)-2-ethyl-1,2,3,4-tetrahydroisoquinoline], the IC50 is 1.9 ± 0.7 µM in assay [1] (setting [4]), 1 ± 0.2 µM in assay [1] (setting [5]) and 8 nM on menin protein.
The like results for `c1cnc(N2CC(CN3CCC(C4(C5CCCC5)NCCc5ccccc54)CC3)C2)nc1` (stereo not drawn) [compound 111, 1-cyclopentyl-1-(1-((1-(pyrimidin-2-yl)azetidin-3-yl)methyl)piperidin-4-yl)-1,2,3,4-tetrahydroisoquinoline] were, in that order, 96.2 µM, 14.4 µM and 46200 nM.
As for `CNC(=O)O[C@H]1CCC[C@@H]1C(Cn1ccnc1)(c1cccc(F)c1)C1CCN(CC2CN(c3ccc(C#N)cc3)C2)CC1` (mixture of isomers) [compound 390, rac-(1S,2R)-2-(1-(1-((1-(4-cyanophenyl)azetidin-3-yl)methyl)piperidin-4-yl)-1-(3-fluorophenyl)-2-(1H-imidazol-1-yl)ethyl)cyclopentyl methylcarbamate], the half-maximal inhibitory concentration (IC50) was determined as 0.082 µM in assay [1] (setting [2]), 0.021 µM in assay [1] (setting [3]) and 5 nM at menin protein.
